From US8163702B2, “Treatment of melanoma” (SciClone Pharmaceuticals, Inc., priority 2006, dated 2012)
Where “and” joins values, the source holds several entries; their conditions need not be identical. Identical values can stand only once.

System: murine B16 melanoma
Test: Antitumor effect in murine B16 melanoma model, tumor size and tumor weight (Example 2)
Format: in vivo, C57BL/6 mice
Conditions: for Tumor volumes / Tumor measurements L / Tumor measurements W: Day 12; for IR (tumor volume inhibition rate) / Tumor Volume (Mean ± SD) / Tumor volumes (cm^3) on Day 15 / Tumor measurements (cm) on Day 15, L / Tumor measurements (cm) on Day 15, W: Day 15; for IR (inhibition rate of tumor weight) / Tumor Weight (Mean ± SD) / Tumor weights (g) on Day 17: Day 17; for Tumor volumes (cm^3) on Day 15: Length × Width × Width/2; for Tumor volumes (cm^3) on Day 15 / Tumor measurements (cm) on Day 15, L / Tumor measurements (cm) on Day 15, W / Tumor weights (g) on Day 17: individual animals F1-F5, M1-M5
Description: As per aseptic tissue culture procedures, one vial of B16 melanoma cells (supplied by Cell Culture Center of CAMS) was thawed and centrifuged at 1000 rpm, 20-25° C. for 5 minutes. The cell pellets were suspended in 0.1-0.5 mL normal saline (NS) and subcutaneously injected into the right axilla of each mouse (approximately 1×10^6 cells/mouse). When the tumor diameter was 1 cm approximately (measured by vernier caliper), the animals were euthanized with CO2 asphyxiation and the tumor was excised. Tumor cells were suspended in normal saline as previously described and the cell adaptation cycle was repeated once.
On Day 0, 1×10^6 B16 cells in a volume of 0.1 mL normal saline were subcutaneously injected into the right axillary area of the mouse. The day of tumor inoculation was defined as Day 0.
Dosing was initiated on Day 1.
Observations were recorded daily for mortality and moribundity. […] The tumors were excised, separated, and weighed.
Tumor volume was calculated using the following formula: Tumor Volume=Length×Width×Width/2 Tumor volume inhibition rate (IR) was calculated according to the formula: IR(TV)=(TVvehicle−TVdrug treated)/TVvehicle×100% TV is the tumor volume on the day of measurement.
The antitumor effect of the test article was also evaluated by tumor weight. The tumor weight of each mouse was recorded after euthanasia, and the inhibition rate of tumor weight was calculated according to the formula: IR(TW)=(Tumor weightvehicle−Tumor weightdrug treated)/Tumor weightvehicle×100%

[1] = SCV-07 0.01 mg/kg (Group 3), 0.01 mg/kg, female animals
[2] = SCV-07 0.01 mg/kg (Group 3), 0.01 mg/kg, male animals
[3] = SCV-07 0.01 mg/kg (Group 3), 0.01 mg/kg
[4] = SCV-07 0.1 mg/kg (Group 4), 0.1 mg/kg, female animals
[5] = SCV-07 0.1 mg/kg (Group 4), 0.1 mg/kg, male animals
[6] = SCV-07 0.1 mg/kg (Group 4), 0.1 mg/kg
[7] = SCV-07 1.0 mg/kg (Group 5), 1 mg/kg, female animals
[8] = SCV-07 1.0 mg/kg (Group 5), 1 mg/kg, male animals
[9] = SCV-07 1.0 mg/kg (Group 5), 1 mg/kg
[10] = SCV-07 5.0 mg/kg (Group 6), 5 mg/kg, female animals
[11] = SCV-07 5.0 mg/kg (Group 6), 5 mg/kg, male animals
[12] = SCV-07 5.0 mg/kg (Group 6), 5 mg/kg

## N[C@H](CCC(=O)N[C@@H](Cc1c[nH]c2ccccc12)C(=O)O)C(=O)O [SCV-07, γ-D-glutamyl-L-tryptophan]
Mouse M3, SCV-07 0.1 mg/kg sc
  Tumor volumes: 0.67 cm^3
Mouse M3, SCV-07 1.0 mg/kg sc
  Tumor measurements L: 0.7 cm
  Tumor measurements W: 0.7 cm
  Tumor volumes: 0.17 cm^3
Mouse M3, SCV-07 5.0 mg/kg sc
  Tumor measurements L: 0.9 cm
  Tumor measurements W: 0.9 cm
  Tumor volumes: 0.36 cm^3
Mouse M4, SCV-07 0.01 mg/kg sc
  Tumor measurements L: 1.0 cm
  Tumor measurements W: 1.0 cm
  Tumor volumes: 0.50 cm^3
Mouse M4, SCV-07 0.1 mg/kg sc
  Tumor measurements L: 1.0 cm
  Tumor measurements W: 0.9 cm
  Tumor volumes: 0.41 cm^3
Mouse M4, SCV-07 1.0 mg/kg sc
  Tumor measurements L: 1.0 cm
  Tumor measurements W: 0.7 cm
  Tumor volumes: 0.25 cm^3
Mouse M4, SCV-07 5.0 mg/kg sc
  Tumor measurements L: 1.1 cm
  Tumor measurements W: 1.1 cm
  Tumor volumes: 0.67 cm^3
Mouse M5, SCV-07 0.01 mg/kg sc
  Tumor measurements L: 1.1 cm
  Tumor measurements W: 1.0 cm
  Tumor volumes: 0.55 cm^3
Mouse M5, SCV-07 0.1 mg/kg sc
  Tumor measurements L: 0.9 cm
  Tumor measurements W: 0.9 cm
  Tumor volumes: 0.36 cm^3
Mouse M5, SCV-07 1.0 mg/kg sc
  Tumor measurements L: 0.8 cm
  Tumor measurements W: 0.7 cm
  Tumor volumes: 0.20 cm^3
SCV-07 0.01 mg/kg/day sc
  IR (tumor volume inhibition rate): 15.3%
  Tumor Volume (Mean ± SD): 1.642 ± 0.549 cm^3
  IR (inhibition rate of tumor weight): 27.5%
  Tumor Weight (Mean ± SD): 2.77 ± 0.88 g
SCV-07 0.1 mg/kg/day sc
  IR (tumor volume inhibition rate): 7.9%
  Tumor Volume (Mean ± SD): 1.786 ± 0.524 cm^3
  IR (inhibition rate of tumor weight): 5.8%
  Tumor Weight (Mean ± SD): 3.59 ± 0.62 g
SCV-07 1.0 mg/kg/day sc
  IR (tumor volume inhibition rate): 16.5%
  Tumor Volume (Mean ± SD): 1.617 ± 0.274 cm^3
  IR (inhibition rate of tumor weight): 23.5%
  Tumor Weight (Mean ± SD): 2.92 ± 0.55 g
SCV-07 5.0 mg/kg/day sc
  IR (tumor volume inhibition rate): 30.2%
  Tumor Volume (Mean ± SD): 1.353 ± 0.591 cm^3
  IR (inhibition rate of tumor weight): 30.8%
  Tumor Weight (Mean ± SD): 2.64 ± 1.14 g
[1]
  Tumor volumes (cm^3) on Day 15: 1.37 cm^3 and 1.69 cm^3 (3×) and 1.47 cm^3
  Tumor weights (g) on Day 17: 1.55 g and 2.04 g and 2.24 g and 3.71 g and 3.21 g
[2]
  Tumor volumes (cm^3) on Day 15: 1.57 cm^3 and 1.69 cm^3 and 3.18 cm^3 and 1.47 cm^3 and 2.05 cm^3
  Tumor weights (g) on Day 17: 2.77 g and 2.80 g and 4.57 g and 2.29 g and 2.50 g
[3]
  Tumor measurements (cm) on Day 15, L: 1.5 cm and 1.8 cm (3×) and 1.4 cm (5×) and 1.3 cm
  Tumor measurements (cm) on Day 15, W: 1.5 cm (3×) and 1.4 cm (4×) and 1.3 cm (2×) and 1.8 cm
[4]
  Tumor volumes (cm^3) on Day 15: 1.18 cm^3 (2×) and 1.69 cm^3 (2×) and 1.80 cm^3
  Tumor weights (g) on Day 17: 2.46 g and 4.08 g and 4.03 g and 3.93 g and 3.52 g
[5]
  Tumor volumes (cm^3) on Day 15: 1.69 cm^3 (2×) and 1.77 cm^3 and 1.44 cm^3 and 2.05 cm^3
  Tumor weights (g) on Day 17: 3.10 g and 3.73 g and 4.47 g and 2.86 g and 3.74 g
[6]
  Tumor measurements (cm) on Day 15, L: 1.5 cm (6×) and 2.2 cm and 1.6 cm (2×) and 1.4 cm
  Tumor measurements (cm) on Day 15, W: 1.4 cm (4×) and 1.7 cm and 1.6 cm and 1.5 cm (4×)
[7]
  Tumor volumes (cm^3) on Day 15: 1.10 cm^3 and 1.37 cm^3 and 1.80 cm^3 and 1.35 cm^3 and 1.57 cm^3
  Tumor weights (g) on Day 17: 2.69 g and 2.67 g and 4.06 g and 2.66 g and 3.25 g
[8]
  Tumor volumes (cm^3) on Day 15: 1.47 cm^3 (2×) and 2.30 cm^3 and 1.10 cm^3
  Tumor weights (g) on Day 17: 3.58 g and 2.89 g and 2.25 g and 2.55 g and 2.58 g
[9]
  Tumor measurements (cm) on Day 15, L: 1.5 cm (3×) and 1.7 cm and 1.6 cm (2×) and 2 cm and 1.4 cm (2×) and 2.1 cm
  Tumor measurements (cm) on Day 15, W: 1.5 cm (4×) and 1.3 cm (5×) and 1.6 cm
[10]
  Tumor volumes (cm^3) on Day 15: 1.91 cm^3 and 2.56 cm^3 and 1.69 cm^3 and 2.03 cm^3 and 1.57 cm^3
  Tumor weights (g) on Day 17: 1.94 g and 3.15 g and 2.97 g and 2.80 g and 2.85 g
[11]
  Tumor volumes (cm^3) on Day 15: 1.37 cm^3 and 2.05 cm^3 (2×) and 2.03 cm^3 and 2.14 cm^3
  Tumor weights (g) on Day 17: 4.30 g and 0.15 g and 2.45 g and 3.78 g and 2.02 g
[12]
  Tumor measurements (cm) on Day 15, L: 1.6 cm (3×) and 1.5 cm (2×) and 1.8 cm and 1.3 cm (2×) and 1.4 cm
  Tumor measurements (cm) on Day 15, W: 1.4 cm (4×) and 1.6 cm and 1.3 cm (3×) and 1.5 cm
SCV-07 0.01, 1.0 and 5.0 mg/kg/day sc for 14 days
  B16 melanoma tumor growth: significantly reduced
